Converted amounts (≈) assume the structure as drawn.
Legend:
Type in all cases: functional
Staphylococcus aureus [1] = experiment: Antibacterial activity against Staphylococcus aureus 209p ATCC 6538P assessed as bacterial growth inhibition incubated for 1 to 2 days by serial dilution method; conditions: time 1-2 day
Bacillus subtilis [2] = experiment: Antibacterial activity against Bacillus subtilis assessed as bacterial growth inhibition incubated for 18 to 20 hrs by broth microdilution method; conditions: time 18-20 hrs
Staphylococcus aureus [3] = experiment: Antibacterial activity against Staphylococcus aureus assessed as bacterial growth inhibition by broth dilution method
Bacillus subtilis [4] = experiment: Antibacterial activity against Bacillus subtilis assessed as bacterial growth inhibition
Staphylococcus aureus [5] = experiment: Antibacterial activity against Staphylococcus aureus assessed as bacterial growth inhibition
Escherichia coli [6] = experiment: Antibacterial activity against Escherichia coli JM109 assessed as bacterial growth inhibition incubated for 18 to 20 hrs by broth microdilution method; conditions: time 18-20 hrs
Escherichia coli [7] = experiment: Antibacterial activity against Escherichia coli assessed as bacterial growth inhibition
[8] = test system: Staphylococcus epidermidis; experiment: Antibacterial activity against Staphylococcus epidermidis assessed as bacterial growth inhibition by broth dilution method
[9] = test system: Staphylococcus epidermidis; experiment: Potency index, ratio of streptomycin MIC to test compound MIC for antibacterial activity against Staphylococcus epidermidis assessed as bacterial growth inhibition by broth dilution method
Staphylococcus aureus [10] = experiment: Potency index, ratio of streptomycin MIC to test compound MIC for antibacterial activity against Staphylococcus aureus assessed as bacterial growth inhibition by broth dilution method
Staphylococcus aureus [11] = experiment: Antibacterial activity against Staphylococcus aureus assessed as bacterial growth inhibition by dilution method
Staphylococcus aureus [12] = experiment: Potency index, ratio of Linezolid MIC to test compound MIC for antibacterial activity against methicillin- resistant Staphylococcus aureus assessed as bacterial growth inhibition by dilution method
Staphylococcus aureus [13] = experiment: Antibacterial activity against methicillin- resistant Staphylococcus aureus assessed as bacterial growth inhibition by dilution method
Bacillus subtilis [14] = experiment: Antibacterial activity against Bacillus subtilis MTCC 441 assessed as bacterial growth inhibition incubated for 24 hrs by serial dilution method
Staphylococcus aureus [15] = experiment: Antibacterial activity against Staphylococcus aureus MTCC 7443 assessed as bacterial growth inhibition incubated for 24 hrs by serial dilution method
Escherichia coli [16] = experiment: Antibacterial activity against Escherichia coli assessed as bacterial growth inhibition by agar well diffusion method
Pseudomonas aeruginosa [17] = experiment: Antibacterial activity against Pseudomonas aeruginosa assessed as bacterial growth inhibition by agar well diffusion method
Staphylococcus aureus [18] = experiment: Antibacterial activity against Staphylococcus aureus assessed as bacterial growth inhibition by agar well diffusion method
Bacillus subtilis [19] = experiment: Antibacterial activity against Bacillus subtilis assessed as bacterial growth inhibition by agar well diffusion method
Staphylococcus aureus [20] = experiment: Antibacterial activity against methicillin-resistant Staphylococcus aureus assessed as bacterial growth inhibition incubated for 18 hrs by absorbance based assay
Escherichia coli [21] = experiment: Antibacterial activity against Escherichia coli assessed as bacterial growth inhibition incubated for 18 hrs by absorbance based assay
Klebsiella pneumoniae [22] = experiment: Antibacterial activity against multi-drug Klebsiella pneumoniae assessed as bacterial growth inhibition incubated for 18 hrs by absorbance based assay
Acinetobacter baumannii = experiment: Antibacterial activity against Acinetobacter baumannii assessed as bacterial growth inhibition incubated for 18 hrs by absorbance based assay
Escherichia coli [23] = experiment: Antibacterial activity against Escherichia coli MTCC 443 assessed as bacterial growth inhibition incubated for 24 hrs by serial dilution method
Klebsiella pneumoniae [24] = experiment: Antibacterial activity against Klebsiella pneumoniae NCDC 138 assessed as bacterial growth inhibition incubated for 24 hrs by serial dilution method
Pseudomonas aeruginosa [25] = experiment: Potency index, ratio of Penicillin MIC to test compound MIC for antibacterial activity against Pseudomonas aeruginosa assessed as bacterial growth inhibition by broth dilution method
Klebsiella pneumoniae [26] = experiment: Potency index, ratio of Penicillin MIC to test compound MIC for antibacterial activity against Klebsiella pneumoniae assessed as bacterial growth inhibition by broth dilution method
Klebsiella pneumoniae [27] = experiment: Antibacterial activity against Klebsiella pneumoniae assessed as bacterial growth inhibition by broth dilution method
Pseudomonas aeruginosa [28] = experiment: Antibacterial activity against Pseudomonas aeruginosa assessed as bacterial growth inhibition by broth dilution method

CN[C@@H]1[C@H](O[C@H]2[C@H](O[C@H]3[C@H](O)[C@@H](O)[C@H](N=C(N)N)[C@@H](O)[C@@H]3N=C(N)N)O[C@@H](C)[C@]2(O)C=O)O[C@@H](CO)[C@H](O)[C@H]1O [STREPTOMYCIN]
MIC (Staphylococcus aureus [1]): 1.89 µg/mL (≈ 3.25 µM)
MIC (Bacillus subtilis [2]): 2 µg/mL (≈ 3.44 µM)
MIC (Staphylococcus aureus [3]): 9.36 µg/mL (≈ 16.1 µM)
MIC (Bacillus subtilis [4]): 6.25 µg/mL (≈ 10.7 µM)
MIC (Staphylococcus aureus [5]): 6.25 µg/mL (≈ 10.7 µM)
MIC (Escherichia coli [6]): 1 µg/mL (≈ 1.72 µM)
MIC (Escherichia coli [7]): 6.25 µg/mL (≈ 10.7 µM)
MIC [8]: 4.68 µg/mL (≈ 8.05 µM)

CC1(C)O[C@@H]2[C@@H](CC[C@]3(COC(C)(C)O3)[C@H]2OCc2cn(-c3cccc4ccccc34)nn2)O1
MIC (Staphylococcus aureus [3]): 2.34 µg/mL (≈ 5.03 µM)
Ratio [9]: 4
Ratio (Staphylococcus aureus [10]): 4
MIC [8]: 1.17 µg/mL (≈ 2.51 µM)

CC(=O)NC[C@H]1CN(c2ccc(-n3cc(-c4ncccn4)nn3)c(F)c2)C(=O)O1
MIC (Staphylococcus aureus [11]): 2 µg/mL (≈ 5.03 µM)
Ratio (Staphylococcus aureus [12]): 4
MIC (Staphylococcus aureus [13]): 0.5 µg/mL (≈ 1.26 µM)

CC(C)(NS(=O)(=O)c1ccc(Br)cc1)c1cn(-c2ccc(Br)cc2)nn1
MIC (Bacillus subtilis [14]): 12.5 µg/mL (≈ 25 µM)
MIC (Staphylococcus aureus [15]): 12.5 µg/mL (≈ 25 µM)

COc1ccc(-c2cc(-c3cccs3)nc(OCc3cn(CC(=O)Nc4ccc(C(C)=O)cc4)nn3)c2O)cc1
MIC (Escherichia coli [16]): 0.5 µg/mL (≈ 0.9 µM)
MIC (Pseudomonas aeruginosa [17]): 0.5 µg/mL (≈ 0.9 µM)
MIC (Staphylococcus aureus [18]): 0.5 µg/mL (≈ 0.9 µM)
MIC (Bacillus subtilis [19]): 0.5 µg/mL (≈ 0.9 µM)

Cc1ccc(S(=O)(=O)OCCn2cc(COc3cccc4cccnc34)nn2)cc1
MIC (Staphylococcus aureus [20]): 75.4 µg/mL (≈ 178 µM)
MIC (Escherichia coli [21]): 75.4 µg/mL (≈ 178 µM)
MIC (Klebsiella pneumoniae [22]): 75.4 µg/mL (≈ 178 µM)
MIC (Acinetobacter baumannii): 75.4 µg/mL (≈ 178 µM)

CC(C)(NS(=O)(=O)c1ccccc1)c1cn(-c2ccc(Br)cc2)nn1
MIC (Escherichia coli [23]): 25 µg/mL (≈ 59.3 µM)
MIC (Klebsiella pneumoniae [24]): 12.5 µg/mL (≈ 29.7 µM)

CC1(C)O[C@@H]2[C@@H](CC[C@]3(COC(C)(C)O3)[C@H]2OCc2cn(-c3c(Cl)cc(Cl)cc3Cl)nn2)O1
Ratio (Pseudomonas aeruginosa [25]): 16
Ratio (Klebsiella pneumoniae [26]): 4
MIC (Klebsiella pneumoniae [27]): 9.37 µg/mL (≈ 18.1 µM)
MIC (Pseudomonas aeruginosa [28]): 1.17 µg/mL (≈ 2.26 µM)

Source: ChEMBL document CHEMBL5344406, “1,2,3-Triazole-containing hybrids with potential antibacterial activity against ESKAPE pathogens” (2022)
